Results: patent US20250222120A1, “SYNTHESIS OF NOVEL SMALL MOLECULE CARM1 DEGRADERS, COMPOUNDS FORMED THEREBY, AND PHARMACEUTICAL COMPOSITIONS CONTAINING THEM” (Wisconsin Alumni Research Foundation, priority 2024, published 2025)

How the values were obtained:
Format in all cases: cell-based
[1] = system: BAF155 me2a; assay: BAF155 me2a level in BT474 cells, western blot; details: 0.5 μM, after 48 h
Description: (§1) FIGS. 7A-7F. […] Cell lysates were collected and CARM1, methyl-BAF155, total BAF155, methyl-PABP1, and total PABP1 levels were detected by Western blot. […] Cell lysates were collected and CARM1, methyl-BAF155, total BAF155 levels were detected by Western blot. […] Cell proliferation rate normalized to day 0 was plotted. […] Migrated cells were stained with 1% crystal violet and the percentage of migrated cells were plotted. Data mean±s.d. ***. P≤0.001.
(§2) Western Blot Assay. Cells were harvested and washed with Dulbecco's phosphate-buffered saline (PBS), then lysed with 1×RIPA lysis buffer (50 mM Tris pH 7.5, 150 mM NaCl, 1% NP-40, 0.5% sodium deoxycholate, and 0.1% sodium dodecyl sulfate) supplemented with 1 mM phenylmethylsulfonyl fluoride, 10 μg/mL aprotinin, 1 μM leupeptin, and 10 μg/mL pepstatin on ice for 20 min. The supernatant was collected after spinning down at 15000 RPM at 4 degrees Celsius for 10 min. The concentration of whole lysates was quantified using a Bradford assay. 50-75 μg of cell lysates was boiled in 4× Laemmli Loading Dye and boiled at 100 degrees Celsius for 10 min. 25 μg were run in 8% SDS-PAGE gels and transferred to nitrocellulose membranes. Blots were blocked in 5% skim milk in PBST [PBS and 0.1% Tween 20] for 45 min, then incubated with primary antibodies at 4 degrees Celsius overnight. […]

[2] = system: BAF155 me2a; assay: BAF155 me2a level in MDA-MB-231 cells, western blot; details: 0.5 μM, after 48 h
Description: as §1, §2

[3] = biological target: T1, CARM1 (Homo sapiens, UniProt Q86X55); assay: CARM1 degradation by western blot in MCF10A cells; parameters: endogenous in cells; details: normal human mammary epithelial cell model
T1 sequence (Q86X55 1-608): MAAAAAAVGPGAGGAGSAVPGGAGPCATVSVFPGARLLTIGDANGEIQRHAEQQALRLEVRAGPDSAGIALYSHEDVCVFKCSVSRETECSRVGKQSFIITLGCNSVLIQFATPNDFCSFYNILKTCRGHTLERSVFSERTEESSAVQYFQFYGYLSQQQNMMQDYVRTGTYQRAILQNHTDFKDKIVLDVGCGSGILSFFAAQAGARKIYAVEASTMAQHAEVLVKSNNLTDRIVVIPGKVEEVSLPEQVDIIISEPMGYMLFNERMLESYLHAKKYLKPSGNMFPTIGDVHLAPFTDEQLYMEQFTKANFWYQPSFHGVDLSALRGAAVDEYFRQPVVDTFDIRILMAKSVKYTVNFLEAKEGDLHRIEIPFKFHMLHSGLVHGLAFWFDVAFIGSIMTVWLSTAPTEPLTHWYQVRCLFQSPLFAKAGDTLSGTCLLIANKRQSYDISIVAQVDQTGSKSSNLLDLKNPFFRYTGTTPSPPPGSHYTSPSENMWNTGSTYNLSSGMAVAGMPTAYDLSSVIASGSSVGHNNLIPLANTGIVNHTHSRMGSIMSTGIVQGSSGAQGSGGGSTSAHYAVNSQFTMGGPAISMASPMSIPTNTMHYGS
Experimental: FIG. 5. […] Cell lysates were collected and the CARM1 levels were detected by western blots.
as §2, with “overnight. Blots were washed in PBST for 30 min, then incubated with horseradish peroxidase-linked secondary antibodies (Jackson ImmunoResearch) for 1 hr. Afterwards, blots were washed in PBST for 15-30 min, then treated with chemiluminescent ECL reagent and imaged with the ChemiDoc Imaging System (Bio-Rad) or Azure 600 (Azure Biosystems).” for “overnight.”

Q: With `CNCCN1CCC(c2cc(CN(C)C(=O)c3cccc(Oc4ccc(OCC(=O)N5CCC(CN6CCC(CN7CCN(CC(=O)N[C@H](C(=O)N8C[C@H](O)C[C@H]8C(=O)N[C@@H](C)c8ccc(-c9scnc9C)cc8)C(C)(C)C)CC7)CC6)CC5)cc4)c3)ccn2)CC1` [Compound 3b, (2S,4R)-1-((S)-3,3-dimethyl-2-(2-(4-((1-((1-(2-(4-(3-(methyl((2-(1-(2-(methylamino)ethyl)piperidin-4-yl)pyridin-4-yl)methyl)carbamoyl)phenoxy)phenoxy)acetyl)piperidin-4-yl)methyl)piperidin-4-yl)methyl)piperazin-1-yl)acetamido)butanoyl)-4-hydroxy-N—((S)-1-(4-(4-methylthiazol-5-yl)phenyl)ethyl)pyrrolidine-2-carboxamide] as the compound, how does the “BAF155 me2a level” value [1] read?
A: The value was “decrease of BAF155 me2a level was observed”.

Q: What about the “BAF155 me2a level” value [2] of the same compound?
A: Its value is “decrease of BAF155 me2a level was observed”.

Q: What about the CARM1 degradation [3] of the same compound?
A: Its CARM1 degradation is “high potency for CARM1 degradation”.
